The record followed here is ChEMBL document CHEMBL3044658, “Synthesis and analgesic activity of new 1,3,4-oxadiazoles and 1,2,4-triazoles” (2011).

Common to all, as to assay type: functional
Assay [1] concerns Mus musculus. Briefly: Analgesic activity in Mus musculus NMRI (mouse) assessed as inhibition of late phase of formalin-induced nociception at 30 umol/kg, ip administered 30 min before formalin injection relative to mefenamic acid.
The test system of assay [2] is Mus musculus. The experiment in a line: Analgesic activity in Mus musculus NMRI (mouse) assessed as inhibition of late phase of formalin-induced nociception at 30 umol/kg, ip administered 30 min before formalin injection relative to control.
Assay [3] relates to Mus musculus. The experiment in a line: Analgesic activity in Mus musculus NMRI (mouse) assessed as inhibition of early phase of formalin-induced nociception at 30 umol/kg, ip administered 30 min before formalin injection relative to control.

Take `S=c1[nH]nc(-c2ccccc2Sc2ccccc2)o1`: in the assay on Mus musculus [1], the Ratio worked out at 0.95. The inhibition in vivo at 30 µmol/kg with Mus musculus [2] is 71.3%; in the assay on Mus musculus [3] it was 13.1%.
The matching figures for `S=c1[nH]nc(-c2ccccc2Sc2ccccc2Cl)o1`: 1.06, 80.5% and 16.8%.
For `O=S(=O)(c1ccccc1)c1ccccc1-c1n[nH]c(=S)o1`, in that order: 0.77, 58% and 41.9%.
With `[O-][S+](c1ccccc1)c1ccccc1-c1n[nH]c(=S)[nH]1` (stereo not given), the Ratio with Mus musculus [1] was 0.85. For the same molecule, the inhibition in vivo at 30 µmol/kg in the assay on Mus musculus [2] stood at 63.3%; in the assay on Mus musculus [3], 31.7%.
For `[O-][S+](c1ccccc1)c1ccccc1-c1n[nH]c(=S)o1` (stereo not given), in that order: 1.15, 86.1% and 40.9%.
The matching figures for `Nc1nnc(-c2ccccc2[S+]([O-])c2ccccc2)o1` (stereo not given): 1.07, 79.9% and 29.4%.
The matching figures for `Nc1nnc(-c2ccccc2Sc2ccccc2Cl)o1`: 0.89, 67.1% and 26.7%.
With `Cc1cccc(Nc2ccccc2C(=O)O)c1C` [MEFENAMIC ACID], the inhibition in vivo at 30 µmol/kg is 74.9% in the assay with Mus musculus [2] and 24.1% with Mus musculus [3].
Take `Nc1nnc(-c2ccccc2Sc2ccccc2)o1`: in the assay on Mus musculus [1], the Ratio worked out at 0.85. Besides, the inhibition in vivo at 30 µmol/kg with Mus musculus [2] stood at 63.7%; in the assay on Mus musculus [3], 16.6%.
In the case of `Nc1nnc(-c2ccccc2S(=O)(=O)c2ccccc2)o1`, the Ratio in the assay with Mus musculus [1] is reported as 0.91. For the same molecule, the inhibition in vivo at 30 µmol/kg came to 68.3% with Mus musculus [2] and 40.5% in the assay on Mus musculus [3].
For `S=c1[nH]nc(-c2ccccc2Sc2ccccc2)[nH]1`, in that order: 1.06, 79.6% and 49.4%.
`O=S(=O)(c1ccccc1)c1ccccc1-c1n[nH]c(=S)[nH]1`: the Ratio in the assay with Mus musculus [1] amounted to 0.87. Besides, the inhibition in vivo at 30 µmol/kg with Mus musculus [2] was 64.9%; in the assay on Mus musculus [3], 31.2%.

What is called inhibition in vivo is the drop in the measured response relative to a control, in per cent.
